The source of these data is US7078428B2, “Isoindolone derivatives, preparation process and intermediates of this process, their use as medicaments, and pharmaceutical compositions comprising them” (Sanofi-Aventis Deutschland GmbH, priority 2002, dated 2006).

Data set [1] concerns the target T1, NHE1 (Homo sapiens, UniProt P19634).
T1 construct: expressed in transfected cells
Briefly: NHE inhibition FLIPR test (intracellular pH recovery, BCECF) in transfected LAP-1 cells. The data set is classed as cell-based. The note with it: transfected cell line (parental LAP-1) expressing the NHE-1 subtype, pHi recovery after acidification. The protocol: The NHE inhibitory activities (IC50 values) of the compounds according to the invention were determined by a FLIPR test.
The test is performed in the FLIPR (Fluorescent Imaging Plate Reader) equipped with clear-bottomed and black-walled 96-well microtitration plates.
The growth medium for the transfected cells (Iscove +10% foetal calf serum) also comprises G418 as selection antibiotic to ensure the presence of transfected sequences.
The actual test begins by eliminating the growth medium and adding 100 μl of loading buffer per well (5 μM of BCECF-AM [2′,7′-bis(2-carboxyethyl)-5-(6)-carboxyfluoresceine acetoxymethyl ester] in 20 mM of NH4Cl, 115 mM of choline chloride, 1 mM of CaCl2, 5 mM of KCl, 20 mM of HEPES and 5 mM of glucose; pH 7.4 (adjusted with KOH). The cells are then incubated for 20 minutes at 37° C. This incubation results in the loading of the fluorescent dye into the cells, the fluorescence intensity of which depends on the pHi, and on the NH4Cl, which results in a slight basification of the cells.
The precursor BCECF-AM, a non-fluorescent dye, is, as an ester, capable of crossing the membrane. The actual dye, which is incapable of crossing the membrane, is released inside the cell by esterases.
After this 20-minute incubation, the loading buffer, which comprises NH4Cl and free BCECF-AM, is removed by washing three times in the cell washing device (Tecan Columbus), each wash being performed with 400 μl of washing buffer (133.8 mM of choline chloride, 4.7 mM of KCl, 1.25 mM of MgCl2, 1.25 mM of CaCl2, 0.97 mM of K2HPO4, 0.23 mM of KH2PO4, 5 mM of HEPES and 5 mM of glucose; pH 7.4 (adjusted with KOH)). The residual volume remaining in the wells is 90 μl (possibly between 50 and 125 μl). This washing step removes the free BCECF-AM and results in an intracellular acidification (pHi of 6.3-6.4) due to the removal of the external ammonium ions.
As the equilibrium of the intracellular ammonium with the aqueous ammonia and the protons, by removal of the extracellular ammonium and by the subsequent immediate crossing of the aqueous ammonia across the cell membrane, is disrupted, the washing process results in intracellular protons remaining, which is the cause of the intracellular acidification. This acidification can result finally in the death of the cells if it lasts long enough. It is important here for the washing buffer to be free of sodium (<1 mM), otherwise the extracellular sodium ions would result in an immediate increase in the pHi on account of the activity of the cloned NHE isoforms. It is also important for all the buffers used (loading buffer, washing buffer and regeneration buffer) not to contain any HCO3-ions, otherwise the presence of bicarbonate would result in the activation of bicarbonate-dependent systems that disrupt the pHi regulation, which systems are contained in the LAP-1 parental cell line.
The microtiter plates containing acidified cells are then transferred (up to 20 minutes after the acidification) to the FLIPR. In the FLIPR, the intracellular fluorescent dye is activated with light of a wavelength of 488 nm, which is generated by an argon laser, and the measuring parameters (laser power, illumination time and diaphragm of the […] camera integrated into the FLIPR) are chosen such that the average value of the fluorescent signal per well is between 30,000 and 35,000 relative fluorescence units.
The actual measurement in the FLIPR starts with a photograph being taken by the CCD camera every two seconds under software control. After 10 seconds, the increase in the intracellular pH is initiated by adding 90 μl of regeneration buffer (133.8 mM of NaCl, 4.7 mM of KCl, 1.25 mM of MgCl2, 1.25 mM of CaCl2, 0.97 mM of K2HPO4, 0.23 mM of KH2PO4, 10 mM of HEPES and 5 mM of glucose; pH 7.4 (adjusted with NaOH)) using a 96-well pipette device incorporated into the FLIPR. Some wells, to which is added pure regeneration buffer, serve as positive controls (100% NHE activity). […]

T1 sequence (P19634 whole entry, species assumed): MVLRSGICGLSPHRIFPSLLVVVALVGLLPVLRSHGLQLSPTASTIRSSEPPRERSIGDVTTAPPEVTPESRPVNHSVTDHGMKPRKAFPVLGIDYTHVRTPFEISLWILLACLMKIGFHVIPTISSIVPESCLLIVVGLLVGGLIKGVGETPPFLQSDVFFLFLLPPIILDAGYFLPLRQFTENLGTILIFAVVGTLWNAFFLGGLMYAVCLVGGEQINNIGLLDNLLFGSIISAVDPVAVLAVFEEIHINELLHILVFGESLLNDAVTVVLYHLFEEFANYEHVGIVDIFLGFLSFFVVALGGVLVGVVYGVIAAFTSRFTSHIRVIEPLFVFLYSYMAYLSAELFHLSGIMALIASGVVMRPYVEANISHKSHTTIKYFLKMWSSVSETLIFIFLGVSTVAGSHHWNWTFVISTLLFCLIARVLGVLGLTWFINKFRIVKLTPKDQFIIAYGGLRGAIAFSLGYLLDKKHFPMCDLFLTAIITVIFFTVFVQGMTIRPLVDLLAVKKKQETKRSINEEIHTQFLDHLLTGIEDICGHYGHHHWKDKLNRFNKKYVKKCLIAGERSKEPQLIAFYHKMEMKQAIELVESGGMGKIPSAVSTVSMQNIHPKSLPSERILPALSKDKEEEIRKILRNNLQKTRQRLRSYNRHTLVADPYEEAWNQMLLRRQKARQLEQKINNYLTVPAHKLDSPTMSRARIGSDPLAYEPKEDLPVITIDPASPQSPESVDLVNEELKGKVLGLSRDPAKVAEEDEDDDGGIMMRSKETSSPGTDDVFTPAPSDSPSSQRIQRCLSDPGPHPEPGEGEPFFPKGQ

A word on the IC50: it is the midpoint of a concentration-inhibition curve. For orientation: melting point means the temperature, or range, at which the solid turns liquid. Turning to `CC(C)CN1C(=O)c2ccccc2C1CC(=O)N=C(N)N` (single isomer, unassigned; (-)) [Example 3, (−)-N-[2-(2-Isobutyl-3-oxo-2,3-dihydro-1H-isoindol-1-yl)acetyl]guanidine], the melting point was 264 °C. The half-maximal inhibitory concentration (IC50) in data set [1] was 50 nM.

`CCCN1C(=O)c2ccccc2C1CC(=O)N=C(N)N` (centres unmarked) [Example 5, N-[2-(3-Oxo-2-propyl-2,3-dihydro-1H-isoindol-1-yl)acetyl]guanidine] displayed a melting point of 229 °C. Further, the 50% inhibitory concentration (IC50) in data set [1] came to 92 nM.

Molecule `CCN1C(=O)c2ccccc2C1CC(=O)N=C(N)N` (centres unmarked) [Example 6, N-[2-(2-Ethyl-3-oxo-2,3-dihydro-1H-isoindol-1-yl)acetyl]guanidine] registered a melting point of 223 °C. Moreover, the IC50 in data set [1] was found to be 211 nM.

Regarding `NC(N)=NC(=O)CC1c2ccccc2C(=O)N1CC1CC1` (centres unmarked) [Example 8, N-[2-(2-Cyclopropylmethyl-3-oxo-2,3-dihydro-1H-isoindol-1-yl)acetyl]guanidine], the melting point was 229 °C. In addition, in data set [1], the IC50 worked out at 63 nM.

The molecule `CC(C)CN1C(=O)c2ccc(C(C)(C)C)cc2C1CC(=O)N=C(N)N` (centres unmarked) [Example 10, N-[2-(6-tert-Butyl-2-isobutyl-3-oxo-2,3-dihydro-1H-isoindol-1-yl)acetyl]guanidine] showed a melting point of 214 to 215 °C. The IC50 in data set [1] is 15 nM.

The molecule `CC(C)CN1C(=O)c2cc(C(C)(C)C)ccc2C1CC(=O)N=C(N)N` (centres unmarked) [Example 11, N-[2-(5-tert-Butyl-2-isobutyl-3-oxo-2,3-dihydro-1H-isoindol-1-yl)acetyl]guanidine] gave a melting point of 262 to 263 °C. The half-inhibitory concentration (IC50) in data set [1] was 11 nM.

With `CC(C)CN1C(=O)c2cc(C(F)(F)F)ccc2C1CC(=O)N=C(N)N` (centres unmarked) [Example 14, N-[2-(2-Isobutyl-3-oxo-5-trifluoromethyl-2,3-dihydro-1H-isoindol-1-yl)-acetyl]-guanidine], the melting point came to 224 °C. Further, the half-inhibitory concentration (IC50) in data set [1] worked out at 102 nM.

The molecule `CC(C)CN1C(=O)c2ccc(C(F)(F)F)cc2C1CC(=O)N=C(N)N` (centres unmarked) [Example 15, N-[2-(2-Isobutyl-3-oxo-6-trifluoromethyl-2,3-dihydro-1H-isoindol-1-yl)-acetyl]guanidine] had a melting point of 154 °C. Moreover, the IC50 in data set [1] came to 16 nM.

Consider `CC(C)CN1C(=O)c2cc(Cl)c(Cl)cc2C1CC(=O)N=C(N)N` (centres unmarked) [Example 18, N-[2-(5,6-Dichloro-2-isobutyl-3-oxo-2,3-dihydro-1H-isoindol-1-yl)acetyl]guanidine], for which the melting point is 154 °C. In addition, the 50% inhibitory concentration (IC50) in data set [1] was found to be 26 nM.

`CC(C)CN1C(=O)c2c(F)ccc(F)c2C1CC(=O)N=C(N)N` (centres unmarked) [Example 19, N-[2-(4,7-Difluoro-2-isobutyl-3-oxo-2,3-dihydro-1H-isoindol-1-yl)acetyl]guanidine] gave a melting point of 212 °C. Also, the IC50 in data set [1] was determined as 11 nM.

For the molecule `Cc1ccc2c(c1)C(=O)N(CC(C)C)C2CC(=O)N=C(N)N` (centres unmarked) [Example 34, N-[2-(2-Isobutyl-5-methyl-3-oxo-2,3-dihydro-1H-isoindol-1-yl)acetyl]guanidine], the melting point amounted to 266 °C. Also, the IC50 in data set [1] is 25 nM.

For the molecule “N-[2-(6-Chloro-2-cyclopropylmethyl-3-oxo-2,3-dihydro-1H-isoindol-1-yl )-acetyl]-guanidine and N-[2-(5-Chloro-2-cyclopropylmethyl-3-oxo-2,3-dihydro-1H-isoindol-1 yl)-acetyl]-guanidine [Example 24]”, the IC50 in data set [1] is 7.7 nM.
